{"source": "patent US20260015364A1", "about": "“PIPERAZINE BRIDGE-SUBSTITUTED HETEROCYCLIC PYRIMIDINE COMPOUND” (MEDSHINE DISCOVERY INC., priority 2022, published 2026)", "test_system": "p-ERK in GP2D cells", "experiment": "p-ERK inhibition test of GP2D cells (HTRF)", "assay_type": "cell-based", "conditions": "Homo sapiens, 1 hour compound incubation", "description": "• 1). GP2D cells are seeded in a transparent 96-well cell culture plate, with 80 μL of cell suspension per well and 8000 cells per well, and the cell plate is incubated in a carbon dioxide incubator at 37° C. overnight; • 2). 2 μL of the compound is added to 78 μL of cell culture medium; after mixing well, 20 μL of the compound solution is taken and added to the corresponding cell plate wells, and the cell plate is put back into the carbon dioxide incubator to incubate for another 1 hour; • 3). After the incubation is completed, the cell supernatant is discarded, and 50 μL of 1× cell lysate is added to each well, and incubated at room temperature for 30 minutes with shaking; • 4). Phospho-ERK1/2 Eu Cryptate antibody and Phospho-ERK1/2 d2 antibody are 20-fold diluted using detection buffer; • 5). […] After the incubation is completed, a multimode microplate reader is used to read HTRF excitation: 320 nm, emission: 615 nm, 665 nm; • 7). The IC50 of the test compound is calculated.\n• 1). […] After the incubation was completed, a multimode microplate reader was used to read HTRF excitation: 320 nm, emission: 615 nm, 665 nm; • 7) The IC50 of the test compound was calculated.", "data": [{"smiles": "Nc1cc(F)c(C(F)(F)F)c(-c2ncc3c(N4CC5C=CC(C4)N5)nc(OC[C@@]45CCCN4C[C@H](F)C5)nc3c2F)c1", "note": "[Compound 1]", "values": [{"measurement": "IC50", "value": 4.75, "unit": "nM"}]}]}
